Results published in patent US20250345370A1, “MICROBIAL LIBERATION OF N-METHYLSEROTONIN FROM ORANGE FIBER” (Washington University, priority 2022, published 2025).

Key:
[1] = tested on: liver gene expression; assay: RNA-Seq of liver of germ-free mice treated with 50 mg/kg/d N-methylserotonin; type: in vivo, germ-free C57BL/6J mice
Experimental: RNA-Seq of liver and colonic tissue. Frozen tissue was broken into small pieces and ground into a very fine powder under liquid nitrogen using a mortar and pestle. A 25 mg aliquot of powdered tissue was then aliquoted into shearing matrix F (MP Bio) pre-chilled in liquid nitrogen; 0.5 mL of buffer LBP (Takara) was added immediately and the mixture was placed on a 4° C. cold block. Samples were then disrupted (Biospec bead beater; 2 minutes). The remaining steps in the RNA isolation procedure were performed using a Takara Nucleospin RNA Plus kit. […] Libraries were sequenced using an Illumina Hi-Seq instrument (paired end 75 nucleotide reads; 1.43×10^7±3.74×10^6 reads/liver sample, and 3.27×10^7±1.23×10^6 reads/colon sample). Reads were aligned to the Mus musculus GRCm39 genome assembly with STAR version 2.7.0d. Gene count data were generated from the number of uniquely aligned reads (featureCounts Subread version 1.6.2a). The R package DESEQ2 was used to perform differential gene expression analysis; results were filtered based on an adjusted Benjamini and Hochberg FDR p-value<0.05. Gene set enrichment analysis was carried out using ClusterProfiler with an adjusted p-value cut-off of <0.05 and minimum gene-set size of 3; over-representation was carried out using a loge fold-change cut-off of >1.
Per2 promotes glycogen synthesis. Moreover, genetically engineered disruption of Per3 is associated with resistance to leptin with resulting weight gain, while its deletion directly leads to increased adipogenesis. […] Nfil3 serves as an important link between the gut microbiota, intestinal epithelial lipid metabolism and body composition. […] Moreover, genetic ablation of Nfil3 attenuates high fat diet-induced obesity in mice.

[2] = tested on: colon gene expression; assay: RNA-Seq of colonic tissue of germ-free mice treated with 50 mg/kg/d N-methylserotonin; type: in vivo, germ-free C57BL/6J mice; conditions: for log2 fold-change: colon
[3] = biological target: 5-Htr2A (Homo sapiens, UniProt P28223); conditions: in vitro studies; cited from earlier work
Chain of 5-Htr2A (P28223 whole entry): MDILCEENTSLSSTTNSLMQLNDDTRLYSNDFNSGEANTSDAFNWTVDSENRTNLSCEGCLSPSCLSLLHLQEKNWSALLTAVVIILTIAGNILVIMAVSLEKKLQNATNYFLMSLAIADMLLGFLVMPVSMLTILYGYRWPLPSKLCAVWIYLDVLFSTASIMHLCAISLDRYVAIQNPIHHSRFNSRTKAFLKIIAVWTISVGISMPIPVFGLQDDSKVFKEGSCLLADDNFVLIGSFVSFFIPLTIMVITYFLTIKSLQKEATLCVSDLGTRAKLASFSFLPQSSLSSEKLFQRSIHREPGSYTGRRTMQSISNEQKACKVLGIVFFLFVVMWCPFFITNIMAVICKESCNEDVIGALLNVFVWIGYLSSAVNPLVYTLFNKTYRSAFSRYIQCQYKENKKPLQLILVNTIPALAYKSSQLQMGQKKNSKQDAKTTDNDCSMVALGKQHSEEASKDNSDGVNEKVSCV

For `CNCCc1c[nH]c2ccc(O)cc12` [N-methylserotonin], the “hepatic levels of Nfil3 mRNA” value ([1]; 50 mg/kg/d vs untreated) was “statistically significantly decreased”, the “liver expression of Arntl and Clock” value ([1]; 50 mg/kg/d vs untreated) was “significantly decreased expression” and the “liver expression of Per2, Per3, and Nr1d2” value ([1]; 50 mg/kg/d vs untreated) was “significant increases in expression”. The “number of genes with statistically significant differences in expression in liver” value ([1]; 50 mg/kg/d vs untreated, FDR adjusted p<0.05) was 716 genes, the “log2 fold-change, 0610005C13Rik (Entrez 71661)” value ([1]; upregulated gene in liver: 0610005C13Rik) was 0.39 and the “log2 fold-change, 2810013P06Rik (Entrez 100503178)” value ([1]; upregulated gene in liver: 2810013P06Rik) was 0.57. The “log2 fold-change, 4930523C07Rik (Entrez 67647)” value ([1]; upregulated gene in liver: 4930523C07Rik) was 0.33, the “log2 fold-change, Arl13b (Entrez 68146)” value ([1]; upregulated gene in liver: Arl13b) was 0.37 and the “log2 fold-change, Ccne2 (Entrez 12448)” value ([1]; upregulated gene in liver: Ccne2) was 0.70. For the same compound, the “log2 fold-change, Clic1 (Entrez 114584)” value ([1]; upregulated gene in liver: Clic1) was 0.35, the “log2 fold-change, Crebrf (Entrez 77128)” value ([1]; upregulated gene in liver: Crebrf) was 0.32 and the “log2 fold-change, Dixdc1 (Entrez 330938)” value ([1]; upregulated gene in liver: Dixdc1) was 0.32. For the same compound, the “log2 fold-change, Fam50a (Entrez 108160)” value ([1]; upregulated gene in liver: Fam50a) was 0.41, the “log2 fold-change, Fam126b (Entrez 213056)” value ([1]; upregulated gene in liver: Fam126b) was 0.31 and the “log2 fold-change, Hebp1 (Entrez 15199)” value ([1]; upregulated gene in liver: Hebp1) was 0.38. The “log2 fold-change, Ihh (Entrez 16147)” value ([1]; upregulated gene in liver: Ihh) was 0.74, the “log2 fold-change, Kyat1 (Entrez 70266)” value ([1]; upregulated gene in liver: Kyat1) was 0.24 and the “log2 fold-change, Map1lc3b (Entrez 67443)” value ([1]; upregulated gene in liver: Map1lc3b) was 0.28. The “log2 fold-change, Mbtd1 (Entrez 103537)” value ([1]; upregulated gene in liver: Mbtd1) was 0.48, the “log2 fold-change, Mxi1 (Entrez 17859)” value ([1]; upregulated gene in liver: Mxi1) was 0.29 and the “log2 fold-change, Pdcd4 (Entrez 18569)” value ([1]; upregulated gene in liver: Pdcd4) was 0.36. For the same compound, the “log2 fold-change, Pnldc1 (Entrez 240023)” value ([1]; upregulated gene in liver: Pnldc1) was 0.83, the “log2 fold-change, Prkag2 (Entrez 108099)” value ([1]; upregulated gene in liver: Prkag2) was 0.36 and the “log2 fold-change, Rcl1 (Entrez 59028)” value ([1]; upregulated gene in liver: Rcl1) was 0.28. The “log2 fold-change, Rps15 (Entrez 20054)” value ([1]; upregulated gene in liver: Rps15) was 0.38, the “log2 fold-change, Serpina7 (Entrez 331535)” value ([1]; upregulated gene in liver: Serpina7) was 0.41 and the “log2 fold-change, Smarcd2 (Entrez 83796)” value ([1]; upregulated gene in liver: Smarcd2) was 0.27. For the same compound, the “log2 fold-change, Syne3 (Entrez 212073)” value ([1]; upregulated gene in liver: Syne3, treated vs untreated germ-free mice) was 0.57, the “log2 fold-change, Tbc1d10a (Entrez 103724)” value ([1]; upregulated gene in liver: Tbc1d10a) was 0.61 and the “log2 fold-change, Tedc2 (Entrez 72016)” value ([1]; upregulated gene in liver: Tedc2) was 0.43. The “log2 fold-change, Ube2b (Entrez 22210)” value ([1]; upregulated gene in liver: Ube2b) was 0.41, the “log2 fold-change, Uchl5 (Entrez 56207)” value ([1]; upregulated gene in liver: Uchl5) was 0.34 and the “log2 fold-change, Zc3h6 (Entrez 78751)” value ([1]; upregulated gene in liver: Zc3h6) was 0.63. For the same compound, the “log2 fold-change, Zfp64 (Entrez 22722)” value ([1]; upregulated gene in liver: Zfp64) was 0.41, the “log2 fold-change, Zfp960 (Entrez 449000)” value ([1]; upregulated gene in liver: Zfp960) was 0.60 and the “colonic expression of known (Htr7, Htr2A) or related (Htr3, Htr4, Htr5 and Htr6) receptors” value ([2]; 50 mg/kg/d vs untreated) was “did not reveal any statistically significant effects”. For the same compound, the “number of genes with statistically significant differences in expression in colonic tissue” value ([2]; 50 mg/kg/d vs untreated, FDR-adjusted p<0.05) was “Seven hundred and forty-eight”, the log2 fold-change ([2]; gene 6430548M08Rik) was 0.47 and the log2 fold-change ([2]; gene Aass) was 4.35. It also gave a log2 fold-change ([2]; gene Adgrg6) of 1.06, a log2 fold-change ([2]; gene Adgrl1) of 0.82 and a log2 fold-change ([2]; gene Aldh1l2) of 1.36. For the same compound, the log2 fold-change ([2]; gene Ankrd35) was 1.27, the log2 fold-change ([2]; gene Anxa9) was 3.41 and the log2 fold-change ([2]; gene Arhgef17) was 0.43. For the same compound, the log2 fold-change ([2]; gene Atf5) was 0.70, the log2 fold-change ([2]; gene Atp6v1c2) was 5.46 and the log2 fold-change ([2]; gene Azgp1) was 3.05. The log2 fold-change ([2]; gene Baiap2) was 0.55, the log2 fold-change ([2]; gene Bcl9l) was 0.57 and the log2 fold-change ([2]; gene Bhlha15) was 2.54. It also gave a log2 fold-change ([2]; gene C1s2) of 6.81, a log2 fold-change ([2]; gene Cabp1) of 2.18 and a log2 fold-change ([2]; gene Cbx6) of 0.65. For the same compound, the log2 fold-change ([2]; gene Cecr2) was 1.23, the log2 fold-change ([2]; gene Cirbp) was 0.65 and the log2 fold-change ([2]; gene Clca4a) was 0.41. The log2 fold-change ([2]; gene Col18a1) was 0.40, the log2 fold-change ([2]; gene Crybg2) was 0.56 and the log2 fold-change ([2]; gene Dbp) was 1.14. For the same compound, the log2 fold-change ([2]; gene Derl3) was 3.02, the log2 fold-change ([2]; gene Dixdc1) was 0.49 and the log2 fold-change ([2]; gene Dkkl1) was 4.99. It also gave a log2 fold-change ([2]; gene Dnase2b) of 6.74, a log2 fold-change ([2]; gene Doxl2) of 0.01 and a log2 fold-change ([2]; gene Epop) of 1.75. The log2 fold-change ([2]; gene Fam214a) was 0.49, the log2 fold-change ([2]; gene Fbf1) was 0.51 and the log2 fold-change ([2]; gene Fgl1) was 3.75. The log2 fold-change ([2]; gene Gdf7) was 2.66, the log2 fold-change ([2]; gene Gdf10) was 0.91 and the log2 fold-change ([2]; gene Gm973) was 1.71. The log2 fold-change ([2]; gene Gprc5c) was 2.14, the log2 fold-change ([2]; gene Gsdma) was 3.93 and the log2 fold-change ([2]; gene Gspt2) was 1.14. It also gave a log2 fold-change ([2]; gene Hdac7) of 0.63, a log2 fold-change ([2]; gene Hoxd9) of 1.18 and a log2 fold-change ([2]; gene Igfbp5) of 0.78. The log2 fold-change ([2]; gene Impdh1) was 0.53, the log2 fold-change ([2]; gene Islr) was 0.52 and the log2 fold-change ([2]; gene Itpripl2) was 0.42. For the same compound, the log2 fold-change ([2]; gene Jag2) was 0.92, the log2 fold-change ([2]; gene Kdm6b) was 0.57 and the log2 fold-change ([2]; gene Krt14) was 2.57. The log2 fold-change ([2]; gene Lamc1) was 0.37, the log2 fold-change ([2]; gene Lrrc75b) was 2.59 and the log2 fold-change ([2]; gene Man2a2) was 0.35. The log2 fold-change ([2]; gene Masp1) was 1.38, the log2 fold-change ([2]; gene Mns1) was 1.12 and the log2 fold-change ([2]; gene Mtss2) was 0.61. The log2 fold-change ([2]; gene Mxra8) was 0.45, the log2 fold-change ([2]; gene Nkx3-1) was 0.01 and the log2 fold-change ([2]; gene Npr1) was 0.99. For the same compound, the log2 fold-change ([2]; gene Nr1d1) was 0.81, the log2 fold-change ([2]; gene Nucb2) was 3.53 and the log2 fold-change ([2]; gene Pacsin3) was 0.87. For the same compound, the log2 fold-change ([2]; gene Panct2) was 1.72, the log2 fold-change ([2]; gene Pate4) was 7.55 and the log2 fold-change ([2]; gene Pate9) was 0.01. It also gave a log2 fold-change ([2]; gene Pate14) of 6.47, a log2 fold-change ([2]; gene Per2) of 0.67 and a log2 fold-change ([2]; gene Pgm5) of 0.29. It also gave a log2 fold-change ([2]; gene Pik3ip1) of 1.04, a log2 fold-change ([2]; gene Pitpnm3) of 0.67 and a log2 fold-change ([2]; gene Plau) of 0.93. It also gave a log2 fold-change ([2]; gene Pou3f3) of 1.18, a log2 fold-change ([2]; gene Prrc2a) of 0.49 and a log2 fold-change ([2]; gene Ptges) of 1.14. It also gave a log2 fold-change ([2]; gene Rapgef3) of 0.54, a log2 fold-change ([2]; gene Rbms3) of 0.45 and a log2 fold-change ([2]; gene Rcn1) of 2.72. It also gave a log2 fold-change ([2]; gene Rec8) of 1.38, a log2 fold-change ([2]; gene Rgs7bp) of 0.57 and a log2 fold-change ([2]; gene Rhobtb3) of 0.86. The log2 fold-change ([2]; gene Serpine2) was 2.50, the log2 fold-change ([2]; gene Serpinf1) was 0.82 and the log2 fold-change ([2]; gene Shroom1) was 2.33. It also gave a log2 fold-change ([2]; gene Slc4a8) of 1.04, a log2 fold-change ([2]; gene Slc23a1) of 1.80 and a log2 fold-change ([2]; gene Sp8) of 2.57. It also gave a log2 fold-change ([2]; gene Spinkl) of 7.58, a log2 fold-change ([2]; gene Spock2) of 0.54 and a log2 fold-change ([2]; gene Sptb) of 0.85. The log2 fold-change ([2]; gene Stard5) was 0.43, the log2 fold-change ([2]; gene Sva) was 6.86 and the log2 fold-change ([2]; gene Syvn1) was 0.58. The log2 fold-change ([2]; gene Tgfbr3) was 0.43, the log2 fold-change ([2]; gene Tgm4) was 9.55 and the log2 fold-change ([2]; gene Tmem44) was 0.56. The log2 fold-change ([2]; gene Tns1) was 0.44, the log2 fold-change ([2]; gene Uox) was 2.40 and the log2 fold-change ([2]; gene Upk1b) was 2.61. The log2 fold-change ([2]; gene Vat1) was 0.64, the log2 fold-change ([2]; gene Vwa1) was 0.64 and the log2 fold-change ([2]; gene Zbtb4) was 0.37. The log2 fold-change ([2]; gene Zbtb16) was 1.21, the log2 fold-change ([2]; gene Zfhx3) was 0.54 and the binding [3] was “binds”.
